# Experimental data from article PMC10439230 (Scientific Reports, 2023).
# Tests used:
# [1] = tested on: HL-60 (acute promyelocytic leukemia); assay: Cytotoxic activity assay (XTT); assay type: cell-based, human; conditions: for IC50: Homo sapiens, HL-60, 48 h exposure, XTT, read-out: Cell lines, IC50 (μM) HL-60; for Selectivity Index (SI) values HL-60: SI = IC50 normal cell (MRC-5)/ IC50 cancer cell
# From the text: (§1) The synthetic compounds were screened for their cytotoxic activity using standard MTT or XTT methods[30] against a panel of nine human cancer cell lines and one normal cell line, including MDA-MB-231 (triple-negative breast cancer), T-47D (hormone-dependent breast cancer), HepG2 (hepatocellular carcinoma), A549 (lung adenocarcinoma), H69AR (multidrug-resistant small cell lung carcinoma), HuCCA-1 (cholangiocarcinoma derived from a patient), HeLa (cervical carcinoma), and two leukemia cell lines, HL-60 (acute promyelocytic leukemia) and MOLT-3 (T cell acute lymphoblastic leukemia). MRC-5 normal embryonic lung fibroblast cell line was used to represent normal cells. Chemotherapeutic drugs, doxorubicin and etoposide, were used as positive controls.
# (§2) The cells were seeded into 96-well plates (100 µL for adherent cells and 75 µL for suspended cells) at a density of 5000–20,000 cells per well, depending on their growth rates. Adherent and suspended cells were then allowed to grow at 37 °C with 95% humidity and 5% CO2 for 24 h and 30 min, respectively. The cytotoxicity assay was initiated by adding an equal volume of cell culture medium containing tested compound at predetermined concentrations. Following 48 h of exposure, cell viability was determined using MTT assay for adherent cells[51],[52]or XTT assay for suspeended cells. Briefly, for adherent cells, 100 µL of the MTT reagent was added to each well, and the microtiter plates were further incubated for 2.5–4 h. The medium was subsequently replaced with 100 µL of DMSO to dissolve the purple formazan before the absorbance at 550 nm was measured using a microplate reader (a SpectraMax Plus 384) with a reference wavelength of 650 nm. For suspended cells, 75 µL of the XTT reagent was added to each well, and the cells were further incubated for 4 h. Afterwards, the absorbance of orange formazan at 492 nm was measured with a reference wavelength of 690 nm using a microplate reader.
# [2] = tested on: MOLT-3 (T cell acute lymphoblastic leukemia); assay: Cytotoxic activity assay (XTT); assay type: cell-based, human; conditions: for IC50: Homo sapiens, MOLT-3, 48 h exposure, XTT, read-out: Cell lines, IC50 (μM) MOLT-3; for Selectivity Index (SI) values MOLT-3: SI = IC50 normal cell (MRC-5)/ IC50 cancer cell
# From the text: as §1, §2
# [3] = tested on: HepG2 (hepatocellular carcinoma); assay: Cytotoxic activity assay (MTT); assay type: cell-based, human; conditions: for IC50: Homo sapiens, HepG2, 48 h exposure, MTT, read-out: Cell lines, IC50 (μM) HepG2; for Selectivity Index (SI) values HepG2: SI = IC50 normal cell (MRC-5)/ IC50 cancer cell
# From the text: as §1, §2
# [4] = tested on: H69AR (multidrug-resistant small cell lung carcinoma); assay: Cytotoxic activity assay (MTT); assay type: cell-based, human; conditions: for IC50: Homo sapiens, H69AR, 48 h exposure, MTT, read-out: Cell lines, IC50 (μM) H69AR; for Selectivity Index (SI) values H69AR: SI = IC50 normal cell (MRC-5)/ IC50 cancer cell
# From the text: as §1, §2
# [5] = tested on: HuCCA-1 (cholangiocarcinoma derived from a patient); assay: Cytotoxic activity assay (MTT); assay type: cell-based, human; conditions: for IC50: Homo sapiens, HuCC-A1, 48 h exposure, MTT, read-out: Cell lines, IC50 (μM) HuCCA-1; for Selectivity Index (SI) values HuCCA-1: SI = IC50 normal cell (MRC-5)/ IC50 cancer cell
# From the text: as §1, §2
# [6] = tested on: T-47D (hormone-dependent breast cancer); assay: Cytotoxic activity assay (MTT); assay type: cell-based, human; conditions: for IC50: Homo sapiens, T47D, 48 h exposure, MTT, read-out: Cell lines, IC50 (μM) T47-D; for Selectivity Index (SI) values T47-D: SI = IC50 normal cell (MRC-5)/ IC50 cancer cell
# From the text: as §1, §2
# [7] = tested on: MDA-MB-231 (triple-negative breast cancer); assay: Cytotoxic activity assay (MTT); assay type: cell-based, human; conditions: for IC50: Homo sapiens, MDA-MB-231, 48 h exposure, MTT, read-out: Cell lines, IC50 (μM) MDA-MB-231; for Selectivity Index (SI) values MDA-MB-231: SI = IC50 normal cell (MRC-5)/ IC50 cancer cell
# From the text: as §1, §2
# [8] = tested on: HeLa (cervical carcinoma); assay: Cytotoxic activity assay (MTT); assay type: cell-based, human; conditions: for IC50: Homo sapiens, 48 h exposure, MTT, read-out: Cell lines, IC50 (μM) HeLa; for Selectivity Index (SI) values HeLa: SI = IC50 normal cell (MRC-5)/ IC50 cancer cell
# From the text: as §1, §2
# [9] = tested on: A549 (lung adenocarcinoma); assay: Cytotoxic activity assay (MTT); assay type: cell-based, human; conditions: for IC50: Homo sapiens, A549, 48 h exposure, MTT, read-out: Cell lines, IC50 (μM) A549; for Selectivity Index (SI) values A549: SI = IC50 normal cell (MRC-5)/ IC50 cancer cell
# From the text: as §1, §2
# [10] = tested on: MRC-5 normal embryonic lung fibroblast cell line; assay: Cytotoxic activity assay (MTT), normal cells; assay type: cell-based; conditions: Homo sapiens, MRC5, 48 h exposure, read-out: Cell lines, IC50 (μM) MRC-5
# From the text: as §1, §2
Compound,IC50 [1],Selectivity Index (SI) values HL-60 [1],IC50 [2],Selectivity Index (SI) values MOLT-3 [2],IC50 [3],Selectivity Index (SI) values HepG2 [3],IC50 [4],Selectivity Index (SI) values H69AR [4],IC50 [5],Selectivity Index (SI) values HuCCA-1 [5],IC50 [6],Selectivity Index (SI) values T47-D [6],IC50 [7],Selectivity Index (SI) values MDA-MB-231 [7],IC50 [8],Selectivity Index (SI) values HeLa [8],IC50 [9],Selectivity Index (SI) values A549 [9],IC50 [10]
"C=C1CCC2C(C)(C)CCCC2(C)C1CCC(C)=CC(=O)NCC(=O)OCC [Compound 4r, Ethyl ((E)-3-methyl-5-((1S,4aS,8aS)-5,5,8a-trimethyl-2-methylenedec-ahydronaphthalen-1-yl)pent-2-enoyl)glycinate]",23.9 ± 0.59 µM,2.7,11.5 ± 1.13 µM,5.6,61.3 ± 1.12 µM,1.0,45.9 ± 1.8 µM,1.4,72.3 ± 1.93 µM,0.9,87.2 ± 6.02 µM,0.7,23.4 ± 0.81 µM,2.7,36.6 ± 1.44 µM,1.7,67.3 ± 2.09 µM,0.9,63.9 ± 0.65 µM
"C=C1CC[C@H]2C(C)(C)CCC[C@]2(C)[C@H]1CC/C(C)=C/C(=O)NCCCCCCCC [Compound 4d, (E)-3-Methyl-N-octyl-5-((1S,4aS,8aS)-5,5,8a-trimethyl-2-methylenedecahydronaphthalen-1-yl)pent-2-enamide]",> 120 µM,1.0,> 120 µM,1.0,> 120 µM,1.0,> 120 µM,1.0,> 120 µM,1.0,> 120 µM,1.0,> 120 µM,1.0,> 120 µM,1.0,> 120 µM,1.0,> 120 µM
"C=C1CCC2C(C)(C)CCC[C@]2(C)[C@H]1CC/C(C)=C/C=O (stereo partly drawn) [Compound 3, (E)-3-methyl-5-((1S,8aS)-5,5,8a-trimethyl-2-methylenedecahydronaphthalen-1-yl)pent-2-enal]",56.4 ± 1.37 µM,2.2,37.7 ± 3.2 µM,3.3,122.2 ± 1.03 µM,1.0,> 120 µM,0.7,131.4 ± 1.14 µM,1.0,93.9 ± 1.54 µM,1.3,64.1 ± 1.8 µM,2.0,77.4 ± 1.47 µM,1.6,142 ± 2.69 µM,0.9,125.8 ± 0.46 µM
"C=C1CC[C@H]2C(C)(C)CCC[C@]2(C)[C@H]1CC/C(C)=C/C(=O)NC [Compound 4a, (E)-N,3-Dimethyl-5-((1S,4aS,8aS)-5,5,8a-trimethyl-2-methylenedecahydro-naphthalen-1-yl)pent-2-enamide]",24.7 ± 1.41 µM,2.3,25.5 ± 0.7 µM,2.2,73.4 ± 2.06 µM,0.8,122 ± 3.48 µM,0.5,62.9 ± 1.36 µM,0.9,73.4 ± 2.06 µM,0.8,29.9 ± 0.71 µM,1.9,47.7 ± 1.08 µM,1.2,65.1 ± 3.57 µM,0.9,55.9 ± 0.19 µM
